In PMC9080097, “Identification of absorbed constituents and evaluation of the pharmacokinetics of main compounds after oral administration of yindanxinnaotong by UPLC-Q-TOF-MS and UPLC-QqQ-MS” (RSC Advances, 2018):

Experiments:
[1] = Pharmacokinetics study in rats after oral administration of YDXNT (UPLC-QqQ-MS of plasma)
Method: (§1) Six milliliters of 75% methanol was added to two milliliters of prepared plasma and then vortexed for 60 s. The mixture was centrifuged at 4000 rpm for 10 min at 4 °C. The supernatant was transferred to another EP tube and dried using a pressure blowing concentrator. The residue was redissolved with 200 μL of 75% methanol, vortexed for 60 s, and then centrifuged at 13 000 rpm for 10 min. To an aliquot of 200 μL plasma, 120 μL of 0.2 mol L^−1 acetic acid–sodium acetate buffer solution (pH = 4.6), 100 μL of the IS baicalein and 80 μL of 980 U mL^−1 β-glucuronidase and sulfatase was added and then vortexed for 1 min. The mixture was hydrolyzed in a water bath at 37 °C for 30 min, and 600 μL acetone was added to stop the hydrolysis. The sample was cooled, followed by vortexing for 2 min and then centrifugation at 13 000 rpm for 10 min. The supernatant fluid was evaporated to dryness under a flow of nitrogen gas.
(§2) Chromatographic analysis was performed using an Agilent 1290 Series UPLC from Agilent Technologies (Palo Alto, CA, USA), equipped with a quaternary pump an online degasser, auto-sampler and column oven. Chromatographic separation was performed on the Agilent ZORBAX SB-Aq C18 column (100 mm × 2.1 mm, 1.8 μm, Agilent, USA). The analytical column temperature was maintained at 30 °C and eluted with a mobile phase comprising 0.1% formic acid in water (A) and acetonitrile (B) using the following gradient program: 25–90% B from 0 to 1 min, 90% B from 1 to 3.5 min, and 90–25% B from 3.5 to 5 min at a flow rate of 0.3 mL min^−1. The equilibration time was 5 min, and the injection volume of sample and reference constituents was 5 μL.
(§3) Mass spectrometry was performed on the Agilent 6490 triple-quadrupole mass spectrometer (Palo Alto, CA, USA) equipped with an atmospheric pressure chemical ionization (APCI) interface. The mass spectrometer was set in negative ionization mode, with the capillary voltage set at 3500 V. The other parameters in the source were set as follows: desolvation gas flow, 15 L min^−1; source temperature, 290 °C; N2 sheath gas temperature, 350 °C; nebulizer gas (N2) pressure, 50 psi; flow, 12 L min^−1. The mass spectrometer scanned in multiple reaction monitoring (MRM) mode.
(§4) Six male rats were used in the pharmacokinetics study. All the rats were orally administered 2.4 g kg^−1 YXCNT suspended in an aqueous solution of 0.5% carboxymethyl cellulose sodium (QCT: 4.118 mg; KMF: 5.067 mg; ISR: 0.965 mg; GA: 1.416 mg; GB: 0.680 mg; GC: 0.796 mg; BB: 0.326 mg; TSIIA: 0.624 mg; SAB: 3.84 mg). After dosing for 0 min, 5 min, 15 min, 20 min, 30 min, 45 min, 1 h, 1.5 h, 2 h, 3 h, 4 h, 6 h, 8 h, 12 h, and 24 h, blood samples (500 μL) were drawn from the retro-orbital plexus of each mouse and collected in heparinized tubes according to the specific schedule. All the collected blood samples were immediately centrifuged at 13 000 rpm for 10 min. The plasma layer was transferred to clean tubes and stored at −20 °C until analysis. The plasma concentrations of QCT, ISR, KMF, GA, GB, GC, BB, TSIIA, and SAB were expressed as the mean ± standard deviation (SD), and the mean concentration–time curve was plotted. Non-compartmental pharmacokinetic parameters were computed using DAS 2.1.1 software.

[2] = Stability of the analytes in rat plasma QC samples (short-term, autosampler, freeze-thaw, long-term); details: n = 6
in vivo = details: male, Sprague-Dawley, rat, po
Method: as §1, §2, §3, §4

[3] = male, Sprague-Dawley, rat, plasma, po, 4.8 g kg^−1 d^−1
[4] = 1 ng mL^−1, -20°C for four weeks
[5] = 1 ng mL^−1, room temperature for 6 h before sample preparation
[6] = 1 ng mL^−1, room temperature for 12 h in the autosampler after sample preparation
[7] = 1 ng mL^−1, three freeze-thaw cycles -20°C to ambient temperature
[8] = 10 ng mL^−1, -20°C for four weeks
[9] = 10 ng mL^−1, room temperature for 6 h before sample preparation
[10] = 10 ng mL^−1, room temperature for 12 h in the autosampler after sample preparation
[11] = 10 ng mL^−1, three freeze-thaw cycles -20°C to ambient temperature
[12] = 100 ng mL^−1, -20°C for four weeks
[13] = 100 ng mL^−1, room temperature for 6 h before sample preparation
[14] = 100 ng mL^−1, room temperature for 12 h in the autosampler after sample preparation
[15] = 100 ng mL^−1, three freeze-thaw cycles -20°C to ambient temperature
[16] = rat plasma, oral YDXNT 4.8 g kg^−1 d^−1 (2.4 g kg^−1 in source), n = 6, mean ± SD
[17] = rat plasma, oral YDXNT 4.8 g kg^−1 d^−1 (2.4 g kg^−1 in source), n = 6, non-compartmental

AUC(0-inf) [1, 3] [ng·h/mL]	AUC(0-t) [1, 3] [ng·h/mL]	Cmax [1, 3] [ng/mL]	MRT [1, 3] [h]	Tmax [1, 3] [h]	half-life [1, 3] [h]	Molecule	Long-term stability Accuracy [2, 4] [%]	Short-term stability Accuracy [2, 5] [%]	Autosampler stability Accuracy [2, 6] [%]	Freeze–thaw strability (three cycles) Accuracy [2, 7] [%]	Long-term stability Accuracy [2, 8] [%]	Short-term stability Accuracy [2, 9] [%]	Autosampler stability Accuracy [2, 10] [%]	Freeze–thaw strability (three cycles) Accuracy [2, 11] [%]	Long-term stability Accuracy [2, 12] [%]	Short-term stability Accuracy [2, 13] [%]	Autosampler stability Accuracy [2, 14] [%]	Freeze–thaw strability (three cycles) Accuracy [2, 15] [%]	further results
539 ± 82.3	401 ± 84.4	49.9 ± 13.8	17.1 ± 4.42	0.5 ± 0.23	8.19 ± 2.42	O=c1c(O)c(-c2ccc(O)cc2)oc2cc(O)cc(O)c12 [KMF, kaempferol]	98.70 ± 9.35	96.50 ± 6.47	99.17 ± 4.39	101.23 ± 8.76	100.48 ± 7.44	101.22 ± 2.09	102.65 ± 5.28	103.21 ± 4.14	95.21 ± 5.96	97.10 ± 3.69	95.96 ± 3.11	94.24 ± 6.63	–
–	–	–	–	–	–	salvianolic acid B [SAB]	–	–	–	–	–	–	–	–	–	–	–	–	C max [1, 16]: 32.00 ± 15.43 ng/mL; T max [1, 16]: 0.75 ± 0.18 h; AUC0–INF [1, 17]: 135.72 ± 64.24; MRT [1, 17]: 9.46 ± 2.37 h; T 1/2 [1, 17]: 12.17 ± 3.33 h; AUC0–t ([1]; rat plasma, oral YDXNT 4.8 g kg^−1 d^−1 (2.4 g kg^−1 in source), n = 6, sampling to 24 h, non-compartmental): 118.17 ± 58.46; Long-term stability Accuracy ([2]; 5 ng mL^−1, -20°C for four weeks): 102.76 ± 5.39%; Short-term stability Accuracy ([2]; 5 ng mL^−1, room temperature for 6 h before sample preparation): 97.28 ± 2.19%; Autosampler stability Accuracy ([2]; 5 ng mL^−1, room temperature for 12 h in the autosampler after sample preparation): 96.38 ± 8.63%; Freeze–thaw strability (three cycles) Accuracy ([2]; 5 ng mL^−1, three freeze-thaw cycles -20°C to ambient temperature): 99.24 ± 6.68%; Long-term stability Accuracy ([2]; 50 ng mL^−1, -20°C for four weeks): 95.72 ± 6.59%; Short-term stability Accuracy ([2]; 50 ng mL^−1, room temperature for 6 h before sample preparation): 96.44 ± 6.33%; Autosampler stability Accuracy ([2]; 50 ng mL^−1, room temperature for 12 h in the autosampler after sample preparation): 96.41 ± 5.79%; Freeze–thaw strability (three cycles) Accuracy ([2]; 50 ng mL^−1, three freeze-thaw cycles -20°C to ambient temperature): 98.88 ± 3.59%; Long-term stability Accuracy ([2]; 500 ng mL^−1, -20°C for four weeks): 97.38 ± 4.39%; Short-term stability Accuracy ([2]; 500 ng mL^−1, room temperature for 6 h before sample preparation): 95.76 ± 8.18%; Autosampler stability Accuracy ([2]; 500 ng mL^−1, room temperature for 12 h in the autosampler after sample preparation): 93.17 ± 7.35%; Freeze–thaw strability (three cycles) Accuracy ([2]; 500 ng mL^−1, three freeze-thaw cycles -20°C to ambient temperature): 95.47 ± 4.92%
183 ± 77.4	167 ± 69.5	38.3 ± 17.4	9.89 ± 1.5	0.25 ± 0.23	7.04 ± 2.18	Cc1coc2c1C(=O)C(=O)c1c-2ccc2c1CCCC2(C)C [TSIIA, tanshinone IIA]	101.23 ± 8.76	96.50 ± 6.47	102.65 ± 5.28	100.31 ± 4.27	103.21 ± 4.14	101.22 ± 2.09	95.96 ± 3.11	101.22 ± 2.09	94.24 ± 6.63	95.96 ± 3.11	99.15 ± 5.73	95.97 ± 2.36	–
–	–	–	–	–	–	COc1cc(-c2oc3cc(O)cc(O)c3c(=O)c2O)ccc1O [ISR, isorhamnetin]	98.35 ± 6.27	99.24 ± 6.68	98.06 ± 8.29	103.15 ± 5.43	96.44 ± 6.33	96.28 ± 5.89	97.72 ± 3.83	94.52 ± 3.68	95.76 ± 8.18	102.18 ± 4.95	98.34 ± 7.61	99.63 ± 3.38	AUC(0-inf) (in vivo): 384 ± 55.1 ng·h/mL; AUC(0-t) (in vivo): 319 ± 49.3 ng·h/mL; Cmax (in vivo): 27.9 ± 8.38 ng/mL; MRT (in vivo): 13.9 ± 3.71 h; Tmax (in vivo): 0.33 ± 0.14 h; half-life (in vivo): 8.19 ± 2.42 h
412 ± 82.7	410 ± 73.2	45 ± 11.3	8.44 ± 1.24	0.33 ± 0.11	2.69 ± 0.65	O=c1c(O)c(-c2ccc(O)c(O)c2)oc2cc(O)cc(O)c12 [QCT, quercetin]	97.57 ± 3.42	100.23 ± 1.69	103.73 ± 5.52	98.27 ± 6.33	96.41 ± 5.79	97.45 ± 4.23	99.34 ± 6.73	100.31 ± 4.27	93.17 ± 7.35	95.97 ± 2.36	94.22 ± 5.14	98.35 ± 7.84	–
–	–	–	–	–	–	C[C@@H]1C(=O)O[C@H]2C[C@@]34[C@H]5C[C@@H](C(C)(C)C)[C@]36[C@@H](OC(=O)[C@@H]6O)O[C@@]4(C(=O)O5)[C@]21O [GA, ginkgolide A]	98.92 ± 5.81	100.59 ± 6.08	97.28 ± 2.19	102.76 ± 5.39	95.48 ± 10.28	102.54 ± 7.33	98.33 ± 3.46	98.42 ± 2.84	92.19 ± 8.81	98.31 ± 5.29	96.83 ± 8.30	95.44 ± 7.51	AUC(0-inf) (in vivo): 545 ± 78.9 ng·h/mL; AUC(0-t) (in vivo): 491 ± 72.6 ng·h/mL; Cmax (in vivo): 76.3 ± 18.2 ng/mL; MRT (in vivo): 9.42 ± 1.77 h; Tmax (in vivo): 0.75 ± 0.29 h; half-life (in vivo): 7.52 ± 2.08 h

Molecule	AUC(0-inf) [1, 3] [ng·h/mL]	AUC(0-t) [1, 3] [ng·h/mL]	Cmax [1, 3] [ng/mL]	MRT [1, 3] [h]	Tmax [1, 3] [h]	half-life [1, 3] [h]	Long-term stability Accuracy [2, 4] [%]	Short-term stability Accuracy [2, 5] [%]	Autosampler stability Accuracy [2, 6] [%]	Freeze–thaw strability (three cycles) Accuracy [2, 7] [%]	Long-term stability Accuracy [2, 8] [%]	Short-term stability Accuracy [2, 9] [%]	Autosampler stability Accuracy [2, 10] [%]	Freeze–thaw strability (three cycles) Accuracy [2, 11] [%]	Long-term stability Accuracy [2, 12] [%]	Short-term stability Accuracy [2, 13] [%]	Autosampler stability Accuracy [2, 14] [%]	Freeze–thaw strability (three cycles) Accuracy [2, 15] [%]	further results
CC(C)(C)[C@]1(O)CC2OC(=O)CC23C(=O)OC2OC(=O)[C@H](O)C231 (stereo partly drawn) [BB, bilobalide]	384 ± 51.5	366 ± 48.4	48.7 ± 12.3	9.62 ± 3.18	0.75 ± 0.5	5.55 ± 2.67	99.15 ± 5.73	98.10 ± 7.83	103.47 ± 6.75	99.85 ± 6.27	96.38 ± 8.63	99.78 ± 5.25	95.29 ± 2.77	98.88 ± 3.59	95.54 ± 7.76	94.05 ± 2.61	97.44 ± 3.13	95.47 ± 4.92	–
